From patent US11299496B2, “Ligands for alpha-7 nicotinic acetylcholine receptors and methods of treating neurological and inflammatory conditions” (Northeastern University, priority 2014, dated 2022)

Target: T1, human alpha-7 nAChR (Homo sapiens, UniProt P36544)
T1 construct: expressed in transfected cells; host or cells: Xenopus laevis oocytes (cRNA injection)
Assay: Two-electrode voltage clamp of alpha-7 nAChR expressed in Xenopus oocytes (net charge)
Assay type: cell-based
How it was run: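 Human α7 nAChR co-expressed with RIC-3 in Xenopus oocytes; two-electrode clamp at −60 mV, 12 s applications in Ringer's pH 7.3. Net charge integrated over 120 s from application, normalized to prior ACh controls; measured for compound alone and with choline or ACh; n≥4 oocytes.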

T1 sequence (P36544 23-502): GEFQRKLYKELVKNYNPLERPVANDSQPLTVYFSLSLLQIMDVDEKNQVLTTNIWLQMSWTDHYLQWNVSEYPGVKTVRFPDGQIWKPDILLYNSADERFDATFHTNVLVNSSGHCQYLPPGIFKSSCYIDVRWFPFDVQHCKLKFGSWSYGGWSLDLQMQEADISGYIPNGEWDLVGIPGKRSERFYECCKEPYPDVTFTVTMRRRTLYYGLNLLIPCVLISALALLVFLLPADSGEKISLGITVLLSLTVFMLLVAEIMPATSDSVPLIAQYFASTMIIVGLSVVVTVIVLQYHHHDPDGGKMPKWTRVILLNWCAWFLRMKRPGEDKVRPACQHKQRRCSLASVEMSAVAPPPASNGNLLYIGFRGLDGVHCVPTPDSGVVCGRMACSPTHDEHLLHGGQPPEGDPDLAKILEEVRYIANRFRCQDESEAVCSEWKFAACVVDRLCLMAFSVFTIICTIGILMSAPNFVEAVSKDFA

NS(=O)(=O)c1ccc2c(c1)[C@H]1C=CC[C@H]1[C@@H](c1ccc(Br)cc1)N2 [Compound 1, (3aR,4S,9bS)-4-(4-bromophenyl)-3a,4,5,9b-tetrahydro-3H-cyclopenta[c]quinoline-8-sulfonamide]
Charge Alone (compound alone acting as an allosteric agonist, area under the curve of current vs. time): 450 | Charge +C (compound together with choline or ACh, includes PAM and ago-PAM activity, area under the curve of current vs. time): 1700 | activity of separated enantiomer vs racemate 4BP-TQS (enantioseparation and electrophysiological characterization): all the activity of the racemate of 4BP-TQS lies in one enantiomer
